The text below walks through data of US10174005B2, “Fused pyrimidines as inhibitors of p97 complex” (Cleave Biosciences, Inc., priority 2014, dated 2019).

In one assay the target is p97 (Homo sapiens, UniProt P55072). In words: P97 ATPase biochemical assay (ADP Glo). The note with it: 20 nM p97, 20 μM ATP, 37° C. for 15 minutes. As to the method:
The ATPase assay is performed according the following protocol: Purified enzyme (20 nM p97), substrate (20 μM ATP) and a dose titration of compounds are mixed in buffer (50 mM TRIS pH 7.5, 20 mM MgCl2, 0.02% TX-100, 1 mM DTT, 0.2% (v/v) glycerol) and incubated at 37° C. for 15 minutes. The reaction is terminated and the level of product generated is measured using the ADP Glo Assay Kit (Promega, Madison Wis.). Plotting product generated versus compound concentration and using a four-parameter fit model generates an IC50 value for each compounds.
The p97 assay is an initial screening assay used to determine inhibitory activity of the fused pyrimidine compounds of the invention against the p97 complex. As discussed above, inhibition of activity of the p97 proteosome complex can enable apoptosis and cause elimination of neoplastic cells (cancer cells). The method follows that of Christianson in Nat. Cell Biol., (2011) 14:93.
Assay Buffer is a mixture of 50 mM TRIS pH 7.5, 20 mM MgCl2, 0.02% TX-100, 1 mM DTT and 0.2% (v/v) Glycerol. The well plate is Platetype: Corning 3674, 384w plate. The identification kit is an ADP glo kit (Promega): stop buffer, detection reagent.
Serial dilute compound in DMSO in a 1:3.33-fold 10 point serial dilution.
in each well of 384w plate add the following reagents:
0.5 μL compound serial diluted in DMSO (Final Conc. 10%)
2 μL ATP (Final Conc.=20 uM, diluted in assay buffer)
2.5 μL p97 (Final Conc.=20 nM, diluted in assay buffer)
Incubate at 37 deg C. for 15 min.
Add 5 μL of stop buffer, incubate at RT for 40 min.
Add 10 μL of detection reagent, incubate at RT for 30 min.
Read luminescence on Envision plate reader.
Upon obtaining the data from the luminescence reading, the data may be analyzed as follows:
Normalize luminescence data using no enzyme (full inhibition) and no compound (no inhibition) controls. Plot normalized luminescence data against log-transformed concentration values and fit to a sigmoidal curve to determine IC50 values (done in Collaborative Drug Discovery software).
Background: In ADP-Glo the light output rises with the ADP produced.

Another assay relates to A549 cells. Kind of assay: Cultured cancer cell viability assay (cell titer glo, CTG) in A549 cells. The assay is classed as cell-based. The note with it: Homo sapiens; A549 cells, 72 hr incubation, cell titer glo; read-out: A549 CTG IC50. The source says:
Anti-tumor effects are monitored in cultured cancer cells after several days of compound treatment. The cell titer glo assay (Promega) measures the amount of ATP present as a proxy for cellular viability. Cellular counting is done using high-content microscopy followed by image analysis. A hanging drop 3D-culture system (3D Biomatrix) is used followed by cell titer glo to measure growth in a tumor-like environment.
The cellular assay provides information about the anti-neoplastic activity of the compounds of the invention. The compounds are tested against cultured cancer cells to determine whether or not the compounds of the invention are capable of intersecting with cancer cells to minimize or eliminate such cells. The assay involves establishing colonies of such cells and then treating them with the test compound under specified conditions and analysis regima to determine results.
(§1) Cell Plating: • Seed cells ˜16 hrs prior to compound treatment • Plate 25 μL of A549 cells in every well of 384-well plate using multidrop. • Two (2) black plates for IF at 2500 cells/well • Let plate sit at room temp for 10-15 minutes prior to putting in incubator to • allow cells to stick in middle of plate. • One (1) white plate for viability at 500 cells/well.
(§2) Day 2 Treatment of Cultured Cells with Test Compounds • Treat Cells: • Serial dilute compounds with a 10 point 2-fold serial dilution in DMSO to make 250× stock compound solution • Dilute compounds 1:125 in cell culture media to make a 2× solution Add • 25 μl of dilution compounds to cell plates in well duplicates Put cells back in incubator (6 hr incubation for black plates, 72 hr incubation for white plates).
Viability Assay: • Thaw an aliquot of frozen cell titer glo (Promega G7572) at room temperature. • Add 45 mL of NaCl/PBS solution to 5 ml of cell titer glo (10×). • Remove white plates from incubator, leave at room temp for 30 minutes. • Add 25 μl of diluted cell titer glo to each well. • Shake plate for >1 minute. • Incubate plate for >5 minutes to stabilize luminescence. • Luminescence is stable for up to 3 hours. • Read luminescence on plate reader
(ATP-based viability assays read luminescence as a measure of living cells.)

Assay [1] relates to K48-Ub (lysine-48 chain linkage of poly-ubiquitin) in A549 cells. In words: A549 K48-Ub accumulation, immunofluorescence high-content imaging. The assay is classed as cell-based. The note with it: Homo sapiens, 6 hr incubation. As for the experimental part: Image-analysis is used to generate quantitative data from these assays that can be fit to a four-parameter sigmoid curve to derive IC50 values. Substrates of the ubiquitin-proteasome system, such as p53, are monitored after tumor cell lines are incubated with compounds for several hours. Accumulation of these proteins indicates an inhibition of proteasome-mediated degradation. Accumulation of lysine-48 chain linkage of poly-ubiquitin is also monitored by immunofluorescence as an indicator of ubiquitin-proteasome system inhibition. Both LC3 and SQSTM1 are mediators of autophagy. The localization and amounts of these proteins are monitored by immunofluorescence and report on the activity and inhibition of autophagy in response to p97 inhibition.
as §1, §2
Fix/Stain Black Plates: • Incubate cells in black plates with compound at 37 deg C. for 6 hrs. add 15 μL of 16% Paraformaldehyde (PFA) directly into media of each well, incubate at room temp for 5 min, flick plate and wash in 50 μL of PBS block in 50 μL of Blocking Buffer for 30 minutes (can go up to several hours) • Blocking buffer: 1×PBS, 1% BSA, 0.3% Triton-X 100, Hoechst (1:10,000) incubate in 25 μL of primary antibody in blocking buffer at 4 deg C. over night
Secondary Antibodies: • AlexaFluor488 Goat anti-Rabbit 1:2,000 (Life Tech A11008) • AlexaFluor555 Goat anti-Mouse 1:2.000 (Life Tech A21422)
Day 3/4 • Black Plate Staining (cont): • wash black plates 3× in 50 μL PBS (˜5 min each) incubate in 25 μl of secondary antibody (1:2,000) in blocking buffer for 1-2 hrs at room temp (alexafluor488-anti-Rabbit/alexafluor555-anti-Mouse) • wash 4× in 50 μL PBS (˜5 min each) • leave plates in PBS for imaging • clean bottom of plates with 70% EtOH
Imaging: • Image plates in high content microscope with 405 nm, 488 nm and 555 nm filters
Data Analysis: • Nuclear counts and cellular intensities of each markers are measured using Hoechst as a nuclear marker with an automated image analysis protocol using Matlab software (Math Works)

p97, sequence (P55072 whole entry): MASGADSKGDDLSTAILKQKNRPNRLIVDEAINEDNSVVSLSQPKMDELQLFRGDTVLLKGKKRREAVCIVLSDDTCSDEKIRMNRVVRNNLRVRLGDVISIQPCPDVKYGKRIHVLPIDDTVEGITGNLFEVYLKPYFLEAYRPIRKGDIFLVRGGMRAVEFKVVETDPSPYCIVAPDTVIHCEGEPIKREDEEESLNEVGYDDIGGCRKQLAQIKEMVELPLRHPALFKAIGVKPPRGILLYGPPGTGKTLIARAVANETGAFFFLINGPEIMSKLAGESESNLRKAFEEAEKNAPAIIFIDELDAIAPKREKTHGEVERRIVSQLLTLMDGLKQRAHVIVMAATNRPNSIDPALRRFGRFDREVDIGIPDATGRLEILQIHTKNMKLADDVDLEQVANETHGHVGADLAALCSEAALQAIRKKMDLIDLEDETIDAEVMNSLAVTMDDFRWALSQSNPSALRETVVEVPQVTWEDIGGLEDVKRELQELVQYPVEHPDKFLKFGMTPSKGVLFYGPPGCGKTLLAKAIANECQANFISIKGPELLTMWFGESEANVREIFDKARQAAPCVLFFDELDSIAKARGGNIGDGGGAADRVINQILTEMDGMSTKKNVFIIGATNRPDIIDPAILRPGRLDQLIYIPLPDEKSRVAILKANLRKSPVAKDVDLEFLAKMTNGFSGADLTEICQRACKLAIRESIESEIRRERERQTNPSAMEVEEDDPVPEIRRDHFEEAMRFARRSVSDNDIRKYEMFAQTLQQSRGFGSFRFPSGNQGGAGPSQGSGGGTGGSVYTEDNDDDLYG

Take `COc1nc2c(C(N)=O)cccc2n1-c1nc2c(c(NCc3ccccc3)n1)CCCN2` [FF23, 1-(4-(benzylamino)-5,6,7,8-tetrahydropyrido[2,3-d]pyrimidin-2-yl)-2-methoxy-1H-benzo[d]imidazole-4-carboxamide]: the 50% inhibitory concentration (IC50) (usually the concentration needed to halve the response being measured) against p97 was less than 0.03 µM; in the assay on A549 cells it was less than 3 µM; in assay [1] it was less than 3 µM.

Turning to `NC(=O)c1cccc2c1cnn2-c1nc2c(c(NCc3ccccc3)n1)CCCC2` [FF03, 1-(4-(benzylamino)-5,6,7,8-tetrahydroquinazolin-2-yl)-1H-indazole-4-carboxamide], the IC50 against p97 is less than 0.03 µM; in the assay with A549 cells it was less than 1 µM; in assay [1], less than 1 µM.

Regarding `Cc1cc2c(C(N)=O)cccc2n1-c1nc2c(c(NCc3cccc(F)c3)n1)N(C)CCC2` [FF12, 1-(4-((3-fluorobenzyl)amino)-5-methyl-5,6,7,8-tetrahydropyrido[3,2-d]pyrimidin-2-yl)-2-methyl-1H-indole-4-carboxamide], the IC50 against p97 was less than 0.03 µM; with A549 cells, less than 1 µM; in assay [1], less than 1 µM.

In the case of `Cc1cc2c(C(N)=O)cccc2n1-c1nc2c(c(NCc3ccccc3)n1)CCCN2` [FF07, 1-(4-(benzylamino)-5,6,7,8-tetrahydropyrido[2,3-d]pyrimidin-2-yl)-2-methyl-1H-indole-4-carboxamide], the IC50 on p97 is less than 0.03 µM; with A549 cells, less than 1 µM; in assay [1] it was less than 1 µM.

`Cc1[nH]c2c(C(N)=O)cccc2c1-c1nc2c(c(NCc3ccccc3)n1)CCCC2` [FF05, 3-(4-(benzylamino)-5,6,7,8-tetrahydroquinazolin-2-yl)-2-methyl-1H-indole-7-carboxamide]: the results for the IC50 (on p97; with A549 cells; in assay [1]) were less than 0.03 µM, less than 3 µM and less than 3 µM, respectively.

As for `Cc1cc2c(C(N)=O)cccc2n1-c1nc2c(c(NCc3ccccc3)n1)N(C)CCC2` [FF21, 1-(4-(benzylamino)-5-methyl-5,6,7,8-tetrahydropyrido[3,2-d]pyrimidin-2-yl)-2-methyl-1H-indole-4-carboxamide], the IC50 was less than 0.03 µM against p97, less than 1 µM in the assay with A549 cells and less than 1 µM in assay [1].

Take `Cc1[nH]c2c(C(N)=O)cccc2c1-c1nc2c(c(NCc3ccccc3)n1)COCC2` [FF10, 3-(4-(benzylamino)-7,8-dihydro-5H-pyrano[4,3-d]pyrimidin-2-yl)-2-methyl-1H-indole-7-carboxamide]: the IC50 against p97 is less than 0.1 µM; in the assay on A549 cells, less than 3 µM; in assay [1], less than 3 µM.

`Cc1cc2c(C(N)=O)cccc2n1-c1nc(NCc2ccccc2)c2c(n1)OCCC2` [FF06, 1-(4-(benzylamino)-6,7-dihydro-5H-pyrano[2,3-d]pyrimidin-2-yl)-2-methyl-1H-indole-4-carboxamide]: the IC50 at p97 was less than 0.03 µM; with A549 cells, less than 1 µM; in assay [1], less than 1 µM.

On to `Cc1oc2c(C(N)=O)cccc2c1-c1nc2c(c(NCc3ccccc3)n1)CCCC2` [FF35, 3-(4-(benzylamino)-5,6,7,8-tetrahydroquinazolin-2-yl)-2-methylbenzofuran-7-carboxamide], for which the IC50 on p97 is less than 0.03 µM; in the assay with A549 cells, less than 3 µM; in assay [1] it was less than 3 µM.

As for `Cc1cc2c(C(N)=O)cccc2n1-c1nc(NCc2cc(F)cc(F)c2)c2c(n1)OCCC2` [FF30, 1-(4-((3,5-difluorobenzyl)amino)-6,7-dihydro-5H-pyrano[2,3-d]pyrimidin-2-yl)-2-methyl-1H-indole-4-carboxamide], the IC50 on p97 is less than 0.03 µM; with A549 cells it was less than 3 µM; in assay [1], less than 3 µM.

As for `Cc1cc2c(C(N)=O)cccc2n1-c1nc2c(c(NCc3ccccc3)n1)CCCCC2` [FF18, 1-(4-(benzylamino)-6,7,8,9-tetrahydro-5H-cyclohepta[d]pyrimidin-2-yl)-2-methyl-1H-indole-4-carboxamide], the IC50 at p97 was less than 0.03 µM; in the assay with A549 cells it was less than 1 µM; in assay [1], less than 3 µM.

As for `Cc1cc2c(C(N)=O)cccc2n1-c1nc(NCc2cccc(F)c2)c2c(n1)OCCC2` [FF09, 1-(4-((3-fluorobenzyl)amino)-6,7-dihydro-5H-pyrano[2,3-d]pyrimidin-2-yl)-2-methyl-1H-indole-4-carboxamide], the figures for the concentration for half-maximal inhibition (IC50) (at p97; in the assay on A549 cells; in assay [1]) were less than 0.03 µM, less than 1 µM and less than 1 µM, respectively.

For the molecule `Cc1cc2c(C(N)=O)cccc2n1-c1nc2c(c(NCc3ccccc3)n1)NCCC2` [FF34, 1-(4-(benzylamino)-5,6,7,8-tetrahydropyrido[3,2-d]pyrimidin-2-yl)-2-methyl-1H-indole-4-carboxamide], the IC50 at p97 is less than 0.03 µM; in the assay with A549 cells, less than 1 µM; in assay [1] it was less than 1 µM.

In the case of `Cc1[nH]c2c(C(N)=O)cccc2c1-c1nc(NCc2ccccc2)c2c(n1)OCCC2` [FF27, 3-(4-(benzylamino)-6,7-dihydro-5H-pyrano[2,3-d]pyrimidin-2-yl)-2-methyl-1H-indole-7-carboxamide], the values for the IC50 (on p97; in the assay with A549 cells; in assay [1]) were less than 0.1 µM, less than 3 µM and less than 3 µM, respectively.

Turning to `NCc1cc2c(C(N)=O)cccc2n1-c1nc(NCc2ccccc2)c2c(n1)OCCC2` [FF32, 2-(aminomethyl)-1-(4-(benzylamino)-6,7-dihydro-5H-pyrano[2,3-d]pyrimidin-2-yl)-1H-indole-4-carboxamide], the results for the IC50 (at p97; in the assay on A549 cells; in assay [1]) were less than 0.1 µM, less than 10 µM and less than 10 µM, respectively.

`Cc1cc2c(C(N)=O)cccc2n1-c1nc2c(c(NCc3cccc(F)c3)n1)CCCN2` [FF26, 1-(4-((3-fluorobenzyl)amino)-5,6,7,8-tetrahydropyrido[2,3-d]pyrimidin-2-yl)-2-methyl-1H-indole-4-carboxamide]: the IC50 against p97 is less than 0.03 µM; in the assay on A549 cells, less than 3 µM; in assay [1] it was less than 3 µM.
